Assay results reported in ChEMBL document CHEMBL3132797, “Synthesis and biological evaluation of substituted N-alkylphenyl-3,5-dinitrobenzamide analogs as anti-TB agents” (Medchemcomm, 2014).
In brackets after ≈: the same amount, converted by molar mass.

How the values were obtained:
[1] = system: Mycobacterium tuberculosis; experiment: Antimycobacterial activity against Mycobacterium tuberculosis H37Rv ATCC 27294 by broth dilution method; type: functional
J774 [2] = experiment: Cytotoxicity against mouse J774 cells at 20 ug/ml after 24 hrs by MTT assay; type: cell-based; conditions: j774, 24 h
J774 [3] = experiment: Cytotoxicity against mouse J774 cells after 24 hrs by MTT assay; type: cell-based; conditions: J774, 24 h
[4] = Selectivity index, ratio of IC50 for mouse J774 cells to MIC for Mycobacterium tuberculosis H37Rv ATCC 27294; type: toxicity, cell-based; conditions: read-out: Selectivity Index
[5] = system: Mycobacterium tuberculosis; experiment: Antimycobacterial activity against Mycobacterium tuberculosis H37Rv ATCC 27294 infected in mouse J774 cells assessed as intracellular killing after 48 hrs by colony formation assay; type: functional; conditions: H37Rv ATCC 27294, 48 h
[6] = system: Mycobacterium tuberculosis; experiment: Bactericidal activity against Mycobacterium tuberculosis H37Rv ATCC 27294 by broth dilution method; type: functional

Structure (SMILES)	MIC [1] [µM]	also measured
O=C(NCCCCc1ccccc1)c1cc([N+](=O)[O-])cc([N+](=O)[O-])c1	0.35 (≈ 0.12 µg/mL)	
COc1ccc([C@H](C)NC(=O)c2cc([N+](=O)[O-])cc([N+](=O)[O-])c2)cc1	0.35 (≈ 0.121 µg/mL)	
C[C@@H](NC(=O)c1cc([N+](=O)[O-])cc([N+](=O)[O-])c1)c1ccccc1	0.19 (≈ 0.0599 µg/mL)	Activity (J774 [2]): Non-toxic; IC50 (J774 [3]): > 63.5 µM; selectivity ratio [4]: > 333; MIC [5]: 0.76 µM (≈ 0.24 µg/mL); MBC [6]: 0.19 µM (≈ 0.0599 µg/mL)
C[C@H](NC(=O)c1cc([N+](=O)[O-])cc([N+](=O)[O-])c1)c1ccccc1	> 3.17	
CC[C@@H](NC(=O)c1cc([N+](=O)[O-])cc([N+](=O)[O-])c1)c1ccccc1	0.76 (≈ 0.25 µg/mL)	
CC[C@H](NC(=O)c1cc([N+](=O)[O-])cc([N+](=O)[O-])c1)c1ccccc1	3.04 (≈ 1 µg/mL)	
CCC[C@@H](NC(=O)c1cc([N+](=O)[O-])cc([N+](=O)[O-])c1)c1ccccc1	2.91 (≈ 0.999 µg/mL)	
CC[C@@H](C)NC(=O)c1cc([N+](=O)[O-])cc([N+](=O)[O-])c1	1.87 (≈ 0.5 µg/mL)	
CC[C@H](C)NC(=O)c1cc([N+](=O)[O-])cc([N+](=O)[O-])c1	> 3.74	
CCCCC[C@@H](C)NC(=O)c1cc([N+](=O)[O-])cc([N+](=O)[O-])c1	1.62 (≈ 0.501 µg/mL)	
CCCCC[C@H](C)NC(=O)c1cc([N+](=O)[O-])cc([N+](=O)[O-])c1	1.62 (≈ 0.501 µg/mL)	
CCCCCCNC(=O)c1cc([N+](=O)[O-])cc([N+](=O)[O-])c1	1.69 (≈ 0.499 µg/mL)	
CCCCCCCCCCCCCCCCNC(=O)c1cc([N+](=O)[O-])cc([N+](=O)[O-])c1	0.57 (≈ 0.248 µg/mL)	
O=C(NCCc1ccccc1)c1cc([N+](=O)[O-])cc([N+](=O)[O-])c1	0.79 (≈ 0.249 µg/mL)	Activity (J774 [2]): Non-toxic; IC50 (J774 [3]): > 63.5 µM; selectivity ratio [4]: > 80; MIC [5]: 3.16 µM (≈ 0.996 µg/mL); MBC [6]: 0.79 µM (≈ 0.249 µg/mL)
Cc1ccc(CNC(=O)c2cc([N+](=O)[O-])c(C)c([N+](=O)[O-])c2)cc1	0.09 (≈ 0.0296 µg/mL)	
Cc1ccc(CNC(=O)c2cc([N+](=O)[O-])cc([N+](=O)[O-])c2)cc1	3.17 (≈ 0.999 µg/mL)	
O=C(NCc1ccccc1)c1cc([N+](=O)[O-])cc([N+](=O)[O-])c1	0.8 (≈ 0.241 µg/mL)	
Cc1ccc(CCNC(=O)c2cc([N+](=O)[O-])cc([N+](=O)[O-])c2)cc1	1.52 (≈ 0.501 µg/mL)	
O=C(NCCCc1ccccc1)c1cc([N+](=O)[O-])cc([N+](=O)[O-])c1	1.52 (≈ 0.501 µg/mL)	
O=C(Nc1ccc(OC(F)(F)F)cc1)c1cc([N+](=O)[O-])cc([N+](=O)[O-])c1	2.7 (≈ 1 µg/mL)	
O=C(Nc1ccc(C(F)(F)F)cc1)c1cc([N+](=O)[O-])cc([N+](=O)[O-])c1	2.82 (≈ 1 µg/mL)	
O=C(Nc1ccccc1C(F)(F)F)c1cc([N+](=O)[O-])cc([N+](=O)[O-])c1	1.41 (≈ 0.501 µg/mL)	
O=C(Nc1cccc(F)c1)c1cc([N+](=O)[O-])cc([N+](=O)[O-])c1	3.28 (≈ 1 µg/mL)	
C[C@H](c1ccccc1)N(C)C(=O)c1cc([N+](=O)[O-])cc([N+](=O)[O-])c1	1.52 (≈ 0.501 µg/mL)	
O=C(Nc1ccc(F)cc1)c1cc([N+](=O)[O-])cc([N+](=O)[O-])c1	> 1.63	
